Experimental data published in US7750006B2, “Phthalazinone derivatives” (Kudos Pharmaceuticals Limited, priority 2000, dated 2010).

Test system: HeLa cells
Test: Dose Enhancing Factor: cell growth inhibition with bleomycin, SRB assay
Format: cell-based
Conditions: test compound 25 μM, bleomycin 0.5 μg/ml
Method: The Dose Enhancing Factor (DEF) is a ratio of the enhancement of cell growth inhibition elicited by the test compound in the presence of bleomycin compared to bleomycin alone. […] Bleomycin was used at a concentration of 0.5 μg/ml. The DEF was calculated from the formula:
[formula] where GrowthTC is cell growth in presence of the test compound; GrowthControl is cell growth of control cells; Growthbleo is cell growth in presence of bleomycin; and Growth(bleo+TC) is cell growth in presence of bleomycin and the test compound.
2,000 HeLa cells were seeded into each well of a flat-bottomed 96-well microtiter plate in a volume of 100 μl and incubated for 6 hours at 37° C. […] Cells were allowed to grow for a further 1 hour before the addition of bleomycin to either untreated cells or test compound treated cells. Cells untreated with either bleomycin or test compound were used as a control. Cells treated with test compound alone were used to assess the growth inhibition by the test compound.
Cells were left for a further 16 hours before replacing the media and allowing the cells to grow for a further 72 hours at 37° C. The media was then removed and the cells fixed with 100 μl of ice cold 10% (w/v) trichloroacetic acid. The plates were incubated at 4° C. for 20 minutes and then washed four times with water. Each well of cells was then stained with 100 μl of 0.4% (w/v) SRB in 1% acetic acid for 20 minutes before washing four times with 1% acetic acid. Plates were then dried for 2 hours at room temperature. The dye from the stained cells was solubilized by the addition of 100 μl of 10 mM Tris Base into each well.

Structure (SMILES) | DEF (Dose Enhancing Factor)
O=c1[nH]nc(Cc2ccccc2)c2ccccc12 [Compound 145] | 1.8
O=c1[nH]nc(CSc2ccc(Cl)cc2)c2ccccc12 [Compound 90] | 1.8
Nc1cc(Cc2n[nH]c(=O)c3ccccc23)ccc1N1CCSCC1 [Compound 198] | 2.3
O=c1[nH]nc(Cc2ccncc2)c2ccccc12 [Compound 177] | 1.2
CC(=O)Nc1ccc(Cc2n[nH]c(=O)c3ccccc23)cc1 [Compound 166] | 1.4
CC(=O)Oc1ccc(Cc2n[nH]c(=O)c3ccccc23)cc1 [Compound 213] | 1.3
O=c1[nH]nc(Cc2cccc(O)c2)c2ccccc12 [Compound 165] | 1.3
COC(=O)CSCc1n[nH]c(=O)c2ccccc12 [Compound 93] | 1.3
O=C(Nc1ccccc1)Nc1cccc(Cc2n[nH]c(=O)c3ccccc23)c1 [Compound 215] | 1.4
O=c1[nH]nc(Cc2ccc(Cl)cc2)c2ccccc12 [Compound 126] | 1.9
O=c1[nH]nc(CSc2ccccn2)c2ccccc12 [Compound 91] | 1.4
O=c1[nH]nc(Cc2ccc(N3CCCC3)c([N+](=O)[O-])c2)c2ccccc12 [Compound 204] | 1.6
Cc1ccccc1Cc1n[nH]c(=O)c2ccccc12 [Compound 163] | 1.3
O=c1[nH]nc(Cc2ccc3c(c2)OCO3)c2ccccc12 [Compound 180] | 1.2
O=c1[nH]nc(Cc2cccc(Cl)c2)c2ccccc12 [Compound 186] | 1.6
CC(=O)Oc1cccc(Cc2n[nH]c(=O)c3ccccc23)c1 [Compound 179] | 1.4
CC(=O)Nc1cccc(Cc2n[nH]c(=O)c3ccccc23)c1 [Compound 172] | 1.4
O=c1[nH]nc(Cc2cccc(Oc3ccccc3)c2)c2ccccc12 [Compound 193] | 2.2
O=c1[nH]nc(Cc2cccc(C(F)(F)F)c2)c2ccccc12 [Compound 191] | 1.5
O=C(Nc1ccc(F)cc1)Nc1cccc(Cc2n[nH]c(=O)c3ccccc23)c1 [Compound 216] | 1.3
O=C(Nc1ccc(Cc2n[nH]c(=O)c3ccccc23)cc1)c1ccc(F)cc1 [Compound 227] | 2.6

Structure (SMILES) | DEF (Dose Enhancing Factor)
O=c1[nH]nc(Cc2ccc(Br)cc2)c2ccccc12 [Compound 129] | 1.3
O=c1[nH]nc(Cc2cccnc2)c2ccccc12 [Compound 178] | 1.9
O=c1[nH]nc(Cc2cccc(OCc3ccccc3)c2)c2ccccc12 [Compound 194] | 1.6
O=c1[nH]nc(Cc2cccc3ccccc23)c2ccccc12 [Compound 131] | 1.3
COc1cc(Cc2n[nH]c(=O)c3ccccc23)ccc1OCc1ccccc1 [Compound 222] | 1.2
Cn1ccnc1SCc1n[nH]c(=O)c2ccccc12 [Compound 92] | 1.5
O=c1[nH]nc(Cc2ccccc2F)c2ccccc12 [Compound 248] | 1.2
O=c1[nH]nc(Cc2ccc(F)cc2)c2ccccc12 [Compound 132] | 2.3
COc1ccc(Cc2n[nH]c(=O)c3ccccc23)cc1 [Compound 138] | 1.3
O=c1[nH]nc(Cc2cccc(F)c2)c2ccccc12 [Compound 192] | 1.4
O=c1[nH]nc(Cc2ccc(O)cc2)c2ccccc12 [Compound 164] | 1.3
O=C(Oc1cccc(Cc2n[nH]c(=O)c3ccccc23)c1)c1ccc(F)cc1 [Compound 212] | 2.3
Cc1ccc(Cc2n[nH]c(=O)c3ccccc23)cc1 [Compound 139] | 1.4
O=C(Nc1cccc(Cc2n[nH]c(=O)c3ccccc23)c1)c1ccc(F)cc1 [Compound 170] | 2.6
O=C(Nc1cccc(Cc2n[nH]c(=O)c3ccccc23)c1)c1cccs1 [Compound 169] | 1.5
O=C(Nc1cccc(Cc2n[nH]c(=O)c3ccccc23)c1)c1ccccc1 [Compound 171] | 1.8
Nc1cccc(Cc2n[nH]c(=O)c3ccccc23)c1 [Compound 160] | 1.5
O=c1[nH]nc(Cc2ccccc2F)c2ccccc12 [Compound 141] | 1.6
O=c1[nH]nc(Cc2ccc(I)cc2)c2ccccc12 [Compound 151] | 1.9
O=C(O)COCC(=O)Nc1cc(Cc2n[nH]c(=O)c3ccccc23)ccc1N1CCOCC1 [Compound 206] | 1.2
O=c1[nH]nc(Cc2cccc(Br)c2)c2ccccc12 [Compound 211] | 1.4
